Data on six compounds can be found in patent US20080139455A1, “COMPOUNDS AND METHODS OF TREATING METABOLIC SYNDROME AND INFLAMMATION” (Forbes Medi-Tech (Research), Inc., priority 2006, published 2008).

The target of data set [1] is T1, SPT (Homo sapiens, UniProt O15269+O15270).
T1 sequence (O15269 1-473): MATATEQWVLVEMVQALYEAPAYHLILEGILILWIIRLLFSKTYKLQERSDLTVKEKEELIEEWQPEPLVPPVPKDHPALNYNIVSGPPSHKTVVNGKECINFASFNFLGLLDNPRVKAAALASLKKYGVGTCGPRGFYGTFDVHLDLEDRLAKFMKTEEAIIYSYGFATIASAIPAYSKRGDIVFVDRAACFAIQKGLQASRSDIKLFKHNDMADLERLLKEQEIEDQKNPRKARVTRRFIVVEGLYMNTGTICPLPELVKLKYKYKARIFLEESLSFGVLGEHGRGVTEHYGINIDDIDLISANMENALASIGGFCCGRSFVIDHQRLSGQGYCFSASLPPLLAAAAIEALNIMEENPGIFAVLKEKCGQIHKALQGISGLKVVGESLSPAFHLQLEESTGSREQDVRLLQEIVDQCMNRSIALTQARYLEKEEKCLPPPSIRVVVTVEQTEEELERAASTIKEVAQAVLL
T1 sequence (O15270 1-562): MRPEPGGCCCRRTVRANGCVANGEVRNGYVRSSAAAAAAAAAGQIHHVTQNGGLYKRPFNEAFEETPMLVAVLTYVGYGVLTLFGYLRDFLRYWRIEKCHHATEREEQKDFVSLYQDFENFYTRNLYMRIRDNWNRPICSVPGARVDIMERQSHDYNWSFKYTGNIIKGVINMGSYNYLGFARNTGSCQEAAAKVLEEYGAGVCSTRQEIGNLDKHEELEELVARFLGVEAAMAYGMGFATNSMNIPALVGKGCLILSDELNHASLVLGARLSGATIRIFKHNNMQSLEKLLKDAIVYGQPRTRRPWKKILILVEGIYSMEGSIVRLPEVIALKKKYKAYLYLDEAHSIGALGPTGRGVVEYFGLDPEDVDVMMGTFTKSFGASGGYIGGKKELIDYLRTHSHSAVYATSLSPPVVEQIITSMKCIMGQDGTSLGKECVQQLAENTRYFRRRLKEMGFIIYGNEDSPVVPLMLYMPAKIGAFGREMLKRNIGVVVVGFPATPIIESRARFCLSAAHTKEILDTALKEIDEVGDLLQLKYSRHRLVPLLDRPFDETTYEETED
Kind of data set: Serine palmitoyltransferase activity, Assay C ([3H]serine incorporation into lipids, cell homogenates). Type of data set: biochemical. To be noted: 37° C. for 20 min, at the doses indicated. As to the method:
An alternative assay for evaluating inhibition of SPT, the enzyme present in commonly cultured cells, is performed with CHO cells or a human cell line. Cells are washed three times with ice-cold phosphate-buffered saline (PBS). A total of 0.5 mL of lysis buffer [50 mM Hepes (pH 8.0) containing 5 mM ethylenediaminetetraacetic acid (EDTA) and 5 mM dithiothreitol (DTT)] is added to each dish. The cells are scraped using a rubber policeman, and are then transferred to a test tube on ice. The cell suspension is sonicated three times for 5 s at 1-2 min intervals on ice. Protein concentrations in cell homogenates are measured using a Bradford protein assay kit (Bio-Rad). […] The radioactivity is measured with a LS6000TA liquid scintillation counter (Beckman). Nonspecific conversion of [^3H] serine to chloroform-soluble species is determined by performing the assay in the absence of palmitoyl CoA. […]
An alternative assay using a non-chlorinated solvent modification of the Blye and Dyer lipid extraction method reported in Smedes (Smedes, F. (1999) Analyst 124, 1711-18) is employed to evaluate exemplary compounds. […] An accurately measured portion of the organic layer (4.0 ml) is added to a scintillation vial with 1 ml of water. […] The amount of [^3H] serine radioactivity incorporated into lipids is quantified in a scintillation counter. […]

Data set [2] deals with Rat pancreatic islets. Kind of data set: Protection of islets by an SPT inhibitor (propidium iodide staining, flow cytometry). It is filed as cell-based. As to conditions: 3 days. The protocol:
Islet protection by an exemplary compound is evaluated in an assay according to Eitel, K, et al. Biochem. Biophys. Res. Commun. 299: 853-6 (2002), and results obtained in this assay are reported below in Table 4. Rat pancreatic islets are cultured with control medium (RPMI 1640 supplemented with 10% fetal bovine serum, antibiotics and made 8% in glucose) or in medium supplemented with I millimolar sodium palmitate (Fatty Acid Medium) during a period of 3 days. The culture medium is changed after 2 days to an identical composition culture medium with fresh inhibitor in the appropriate wells. Cells are stained with propidium iodide (PI), washed and propidium staining of cells (as a measure of cellular DNA content) is assessed by flow cytometry. The percentage of cells having less than the normal amount of PI staining is considered to be apoptotic cells (Eitel, K, et al. (2002)).
For orientation: Flow cytometry measures light scatter and fluorescence of single cells or particles in a stream.

In data set [3] the target is T1, SPT. As to conditions: literature; cited from earlier work.
The subject of data set [4] is mice. As to conditions: literature, cited from earlier work; for protective effect / prevention of progression of emphysema: VEGF receptor blockade model.
Data set [5] relates to ApoE knockout mice. To be noted: literature; cited from earlier work.
The test system of data set [6] is diabetic Zucker fatty rat model. As to conditions: literature; cited from earlier work.

`CCCCCCCOc1cccc(CCC(O)C(O)C(N)C(=O)O)c1` (stereo not shown) [Compound 12]: the “inhibition of SPT ([3H] serine radioactivity incorporated into lipids)” value in data set [1] was “moderate activity”. Also, the “protection of islet cells from fatty acid treatment (apoptotic cells by PI staining)” value in data set [2] (medium with sodium palmitate (Fatty Acid Medium)) is given as “fully protect cells from the fatty acid treatment”. Also, the “benefit in comparison to treatment with the control medium (apoptotic cells by PI staining)” value in data set [2] (versus control medium) is on record as “imparts a benefit in comparison to treatment with the control medium”.
In the case of `CCCCCCCCc1ccc(CCC(N)(CO)CO)cc1` [FTY720], in data set [3], the “activity against / inhibition of SPT” value was “do not inhibit SPT”.
On to `CCCCCCC(=O)CCCCCC/C=C/C[C@@H](O)[C@H](O)[C@@](N)(CO)C(=O)O` [ISP-1], for which the “inhibition of SPT ([3H] serine radioactivity incorporated into lipids)” value in data set [1] is on record as “potent but non-selective inhibition”. For the same compound, in data set [3], the “IC50 for inhibition of SPT” value is reported as “sub-nanomolar”. The “protective effect / prevention of progression of emphysema” value in data set [4] is “very strong protective effect”. The atherosclerotic plaque entry in data set [5] is reported as “dramatic reduction in atherosclerotic plaque”.
`CCCCCCCCc1ccc(CCC(N)(CO)C(=O)O)cc1` (stereo not shown) [compound 2]: in data set [3], the “activity against / inhibition of SPT” value is given as “did not exhibit activity against SPT”.
With `N[C@@H]1CON=C1O` [cycloserine], in data set [3], the “activity against / inhibition of SPT” value is listed as “weak inhibition”. The “beta cell protective effect” value in data set [6] is listed as “≈ 50%”.
Regarding `CCCC[C@@H](C)[C@@H](OC(=O)C[C@@H](CC(=O)O)C(=O)O)[C@H](C[C@@H](C)C[C@H](O)CCCC[C@@H](O)C[C@H](O)[C@H](C)N)OC(=O)C[C@@H](CC(=O)O)C(=O)O` [fumonisin B1], in data set [4], the “protective effect / prevention of progression of emphysema” value is listed as “less effective”. The toxicity result in data set [4] (emphysema model, higher doses) is reported as “some toxicity at higher doses”.
